Source: US12091426B2, “Bifunctional degraders of hematopoietic progenitor kinase and therapeutic uses thereof” (Nurix Therapeutics, Inc., priority 2021, dated 2024)

Target: T1, HPK1 (Homo sapiens, UniProt Q92918)
T1 construct: A HiBiT tag was introduced by CRISPR on the N terminus of HPK1 in Jurkat cells; host or cells: Jurkat cells (ATCC TIB-152), monoclonal line with CRISPR knock-in of HiBiT at the endogenous HPK1 locus
Assay: HPK1 Cellular HiBit Degradation Assay
Format: cell-based
Conditions: HiBiT HPK1 Jurkat cells, 24 hrs; for DC50: concentration at which 50% of HPK1 was remaining, read-out: DC50 Category; for Dmax: Jurkat, maximum degradation vs DMSO vehicle control, read-out: Dmax Category
Description: HPK1 Cellular HiBit Degradation Assay
A HiBiT tag was introduced by CRISPR on the N terminus of HPK1 in Jurkat cells (ATCC® TIB-152) to allow quantitation of HPK1 protein levels in a monoclonal human cell line. Cells were plated at 1×10^6 cells/mL, 30 uL/well (3×10^4 cells/well) in complete RPMI 1640 (10% heat inactivated FBS, 1% L-glutamine) in 384-well assay plates (Corning, cat. no. 3570). HPK1 chimeric targeting molecules (CTMs) were added in an 11 point dilution series (11-point, 3.16-fold) with a final assay concentration range of 10 uM to 0.1 nM. The parental Jurkat cell line, with no HiBiT insertion, was included in the assay as a background control. Cell treated with a DMSO vehicle control was used to determine the maximum signal defining 100% HPK1 in the cell. Cells were incubated for 24 hrs at 37° C./5% CO2. Following incubation, 30 uL of complete Nano-Glo HiBiT Lytic Detection Reagent (Promega cat. no. N3040) was added. Cells were incubated for 10 min at room temperature and luminescence was read on an EnVision plate reader (Perkin Elmer, 0.1 sec per well). Viability was assessed in the same plate using Cell Titer Fluor (Promega) and read on an EnVision plate reader to ensure results were not the effect of cytotoxicity. Percent HPK1 remaining per sample was calculated as follows:
[formula] % HPK1 remaining values were plotted as a function of compound concentration and curves were fit using the Prism (GraphPad) equation “log(inhibitor) vs response−Variable slope (four parameters)”. Dmax values were calculated by identifying the lowest % remaining and subtracting from 100. DC50 values were determined by extrapolating from the curve the concentration at which 50% of HPK1 was remaining based on the DMSO control.
HiBiT HPK1 Jurkat cell lines were used to evaluate the total protein levels of HPK1 in a robust human cellular high throughput format. The level of HPK1 remaining following treatment with HPK1 CTMs is reported as Dmax (maximum degradation) achieved at 24 hours when compared to vehicle treated controls. […] These decreases were not a result of cytotoxicity measured by a viability assessment.

T1 sequence (Q92918 whole entry): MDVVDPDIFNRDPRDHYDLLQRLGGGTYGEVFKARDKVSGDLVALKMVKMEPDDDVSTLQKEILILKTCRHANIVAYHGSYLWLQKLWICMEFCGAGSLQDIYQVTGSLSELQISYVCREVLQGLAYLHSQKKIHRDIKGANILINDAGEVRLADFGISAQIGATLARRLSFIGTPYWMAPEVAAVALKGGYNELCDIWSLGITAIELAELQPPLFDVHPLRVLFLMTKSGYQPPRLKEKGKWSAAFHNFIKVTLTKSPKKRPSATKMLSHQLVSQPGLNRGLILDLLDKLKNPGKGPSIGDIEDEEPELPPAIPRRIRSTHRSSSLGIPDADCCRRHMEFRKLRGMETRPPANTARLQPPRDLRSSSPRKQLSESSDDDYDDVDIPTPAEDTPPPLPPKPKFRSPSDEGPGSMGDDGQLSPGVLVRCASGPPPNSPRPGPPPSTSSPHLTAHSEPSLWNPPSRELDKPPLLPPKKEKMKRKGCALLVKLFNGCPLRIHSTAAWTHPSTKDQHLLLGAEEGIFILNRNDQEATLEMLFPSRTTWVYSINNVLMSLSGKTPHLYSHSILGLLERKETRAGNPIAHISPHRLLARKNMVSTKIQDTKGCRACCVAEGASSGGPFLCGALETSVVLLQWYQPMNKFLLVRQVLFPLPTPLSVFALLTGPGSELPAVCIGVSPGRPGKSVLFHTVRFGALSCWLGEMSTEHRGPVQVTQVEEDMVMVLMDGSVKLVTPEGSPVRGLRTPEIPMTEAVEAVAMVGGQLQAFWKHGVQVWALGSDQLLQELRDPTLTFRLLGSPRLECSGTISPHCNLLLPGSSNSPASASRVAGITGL

| SMILES | DC50 [nM] | Dmax [%] |
| --- | --- | --- |
| Cc1cc(N2CCC(C(=O)N3CCC(C)(C(=O)N4CCC5(CC4)C(=O)N([C@H]4C[C@@H](N6CCCCC6)C4)c4cc(-c6cc7ncn(C(C)C)c7c(NC7CC7)n6)ccc45)CC3)CC2)ccc1C1CCC(=O)NC1=O (mixture of isomers) [Example 227, (3RS)-3-(4-{4-[4-({6-[4-(cyclopropylamino)-3-(propan-2-yl)-3H-imidazo[4,5-c]pyridin-6-yl]-2-oxo-1-[(1S,3S)-3-(piperidin-1-yl)cyclobutyl]-1,2-dihydrospiro[indole-3,4′-piperidin]-1′-yl}carbonyl)-4-methylpiperidine-1-carbonyl]piperidin-1-yl}-2-methylphenyl)piperidine-2,6-dione] | 100 to 500 | 70 to 85 |
| Cc1cc(F)c(Nc2nc(-c3ccc4c(c3)N([C@H]3C[C@@H](N5CCCCC5)C3)C(=O)C43CCN(C(=O)C4CCN(C(=O)C5CCN(c6ccc(C7CCC(=O)NC7=O)cn6)CC5)CC4)CC3)cc3ncn(C(C)C)c23)cc1C(=O)NC(C)C (mixture of isomers) [Example 72, 5-[(6-{1′-[1-(1-{5-[(3RS)-2,6-dioxopiperidin-3-yl]pyridin-2-yl}piperidine-4-carbonyl)piperidine-4-carbonyl]-2-oxo-1-[(1S,3S)-3-(piperidin-1-yl)cyclobutyl]-1,2-dihydrospiro[indole-3,4′-piperidin]-6-yl}-3-(propan-2-yl)-3H-imidazo[4,5-c]pyridin-4-yl)amino]-4-fluoro-2-methyl-N-(propan-2-yl)benzamide] | 100 to 500 | 70 to 85 |
| CC(C)n1cnc2cc(-c3ccc4c(c3)N([C@H]3C[C@@H](N5CCCCC5)C3)C(=O)C43CCN(C(=O)[C@@H]4CCN(C(=O)[C@H]5CC[C@H](N(C)c6cccc7c6C(=O)N(C6CCC(=O)NC6=O)C7=O)CC5)C4)CC3)nc(NC3CC3)c21 (mixture of isomers) [Example 129, 2-[(3RS)-2,6-dioxopiperidin-3-yl]-4-{methyl[(1R,4R)-4-[(3R)-3-({6-[4-(cyclopropylamino)-3-(propan-2-yl)-3H-imidazo[4,5-c]pyridin-6-yl]-2-oxo-1-[(1S,3S)-3-(piperidin-1-yl)cyclobutyl]-1,2-dihydrospiro[indole-3,4′-piperidin]-1′-yl}carbonyl)pyrrolidine-1-carbonyl]cyclohexyl]amino}-2,3-dihydro-1H-isoindole-1,3-dione] | 100 to 500 | 70 to 85 |
| CC(C)n1cnc2cc(-c3ccc4c(c3)N([C@H]3C[C@@H](N5CC6CCC(C6)C5)C3)C(=O)C43CCN(C(=O)C4(C)CCN(C(=O)C5CCN(c6ccc(C7CCC(=O)NC7=O)cn6)CC5)CC4)CC3)nc(NC3CC3)c21 (mixture of isomers) [Example 217, (3RS)-3-(6-{4-[4-({6-[4-(cyclopropylamino)-3-(propan-2-yl)-3H-imidazo[4,5-c]pyridin-6-yl]-2-oxo-1-[(1S,3S)-3-{3-Azabicyclo[3.2.1]octan-3-yl}cyclobutyl]-1,2-dihydrospiro[indole-3,4′-piperidin]-1′-yl}carbonyl)-4-methylpiperidine-1-carbonyl]piperidin-1-yl}pyridin-3-yl)piperidine-2,6-dione] | < 100 | > 85 |
| CC(C)n1cnc2cc(-c3ccc4c(c3)N([C@H]3C[C@@H](N5CCCCC5)C3)C(=O)C43CCN(C(=O)C4CN(C(=O)C5CCN(c6ccc(C7CCC(=O)NC7=O)cn6)CC5)CC5(CCC5)C4)CC3)nc(NC3CC3)c21 (mixture of isomers) [Example 267, (3RS)-3-(6-{4-[8-({6-[4-(cyclopropylamino)-3-(propan-2-yl)-3H-imidazo[4,5-c]pyridin-6-yl]-2-oxo-1-[(1S,3S)-3-(piperidin-1-yl)cyclobutyl]-1,2-dihydrospiro[indole-3,4′-piperidin]-1′-yl}carbonyl)-6-azaspiro[3.5]nonane-6-carbonyl]piperidin-1-yl}pyridin-3-yl)piperidine-2,6-dione] | < 100 | 50 to 70 |

Results, then the compound that gave them:

| DC50 [nM] | Dmax [%] | SMILES |
| --- | --- | --- |
| < 100 | 50 to 70 | CC(C)n1cnc2cc(-c3ccc4c(c3)N([C@H]3C[C@@H](N5CCCCC5)C3)C(=O)C43CCN(C(=O)C45CCC(C)(C4)N(C(=O)C4CCN(c6ccc(C7CCC(=O)NC7=O)cn6)CC4)C5)CC3)nc(NC3CC3)c21 (mixture of isomers) [Example 251, (3RS)-3-(6-{4-[4-({6-[4-(cyclopropylamino)-3-(propan-2-yl)-3H-imidazo[4,5-c]pyridin-6-yl]-2-oxo-1-[(1S,3S)-3-(piperidin-1-yl)cyclobutyl]-1,2-dihydrospiro[indole-3,4′-piperidin]-1′-yl}carbonyl)-1-methyl-2-azabicyclo[2.2.1]heptane-2-carbonyl]piperidin-1-yl}pyridin-3-yl)piperidine-2,6-dione] |
| < 100 | 70 to 85 | CC(C)n1cnc2cc(-c3ccc4c(c3)N([C@H]3C[C@@H](N5CCCCC5)C3)C(=O)C43CCN(C(=O)C4(C)CCN(C(=O)C5CCN(c6ccc(N7CCC(=O)NC7=O)cn6)CC5(F)F)CC4)CC3)nc(NC3CC3)c21 (stereo partly drawn) [Example 153, 1-(6-{4-[4-({6-[4-(cyclopropylamino)-3-isopropylimidazo[4,5-c]pyridin-6-yl]-2-oxo-1-[(1S,3S)-3-(piperidin-1-yl)cyclobutyl]spiro[indole-3,4′-piperidin]-1′-yl}carbonyl)-4-methylpiperidine-1-carbonyl]-3,3-difluoropiperidin-1-yl}pyridin-3-yl)-1,3-diazinane-2,4-dione] |
| < 100 | 50 to 70 | CC(C)n1cnc2cc(-c3ccc4c(c3)N([C@H]3C[C@@H](N5CCCCC5)C3)C(=O)C43CCN(C(=O)[C@H]4CCN(C(=O)[C@H]5CC[C@@H](Nc6cccc7c6n(C)c(=O)n7C6CCC(=O)NC6=O)CC5)C4)CC3)nc(Nc3ccccc3F)c21 (mixture of isomers) [Example 143, (3RS)-3-(3-methyl-2-oxo-4-{[(1R,4R)-4-[(3S)-3-[(6-{4-[(2-fluorophenyl)amino]-3-(propan-2-yl)-3H-imidazo[4,5-c]pyridin-6-yl}-2-oxo-1-[(1S,3S)-3-(piperidin-1-yl)cyclobutyl]-1,2-dihydrospiro[indole-3,4′-piperidin]-1′-yl)carbonyl]pyrrolidine-1-carbonyl]cyclohexyl]amino}-2,3-dihydro-1H-1,3-benzodiazol-1-yl)piperidine-2,6-dione] |
| < 100 | > 85 | CC(C)n1cnc2cc(-c3ccc4c(c3)N([C@H]3C[C@@H](N5CCCCC5)C3)C(=O)C43CCN(C(=O)C4C5COCC4CN(C(=O)C4CCN(c6ccc(C7CCC(=O)NC7=O)cn6)CC4)C5)CC3)nc(NC3CC3)c21 (mixture of isomers) [Example 288, (3RS)-3-(6-{4-[9-({6-[4-(cyclopropylamino)-3-(propan-2-yl)-3H-imidazo[4,5-c]pyridin-6-yl]-2-oxo-1-[(1S,3S)-3-(piperidin-1-yl)cyclobutyl]-1,2-dihydrospiro[indole-3,4′-piperidin]-1′-yl}carbonyl)-3-oxa-7-azabicyclo[3.3.1]nonane-7-carbonyl]piperidin-1-yl}pyridin-3-yl)piperidine-2,6-dione] |
| < 100 | 70 to 85 | CC(C)n1cnc2cc(-c3ccc4c(c3)N([C@H]3C[C@@H](N5CCCCC5)C3)C(=O)C43CCN(C(=O)C4CCN(C(=O)C5CCN(c6ccc7c(c6)C(=O)N(C6CCC(=O)NC6=O)C7=O)CC5)CC4)CC3)nc(Nc3ccccc3F)c21 (mixture of isomers) [Example 87, 2-[(3RS)-2,6-dioxopiperidin-3-yl]-5-(4-{4-[(6-{4-[(2-fluorophenyl)amino]-3-(propan-2-yl)-3H-imidazo[4,5-c]pyridin-6-yl}-2-oxo-1-[(1S,3S)-3-(piperidin-1-yl)cyclobutyl]-1,2-dihydrospiro[indole-3,4′-piperidin]-1′-yl)carbonyl]piperidine-1-carbonyl}piperidin-1-yl)-2,3-dihydro-1H-isoindole-1,3-dione] |
| < 100 | 50 to 70 | CC(C)n1cnc2cc(-c3ccc4c(c3)N([C@H]3C[C@@H](N5CCCCC5)C3)C(=O)C43CCN(C(=O)C4CCN(C(=O)[C@H]5CC[C@H](N(C)c6ccc(C7CCC(=O)NC7=O)cn6)CC5)CC4)CC3)nc(Nc3ccncc3F)c21 (mixture of isomers) [Example 132, (3RS)-3-(6-{methyl[(1R,4R)-4-{4-[(6-{4-[(3-Fluoropyridin-4-yl)amino]-3-(propan-2-yl)-3H-imidazo[4,5-c]pyridin-6-yl}-2-oxo-1-[(1S,3S)-3-(piperidin-1-yl)cyclobutyl]-1,2-dihydrospiro[indole-3,4′-piperidin]-1′-yl)carbonyl]piperidine-1-carbonyl}cyclohexyl]amino}pyridin-3-yl)piperidine-2,6-dione] |
